Reference: US9232790B2, “Antimicrobial cleansing compositions” (KIMBERLY-CLARK WORLDWIDE, INC., priority 2011, dated 2016)

Experiments:
Format in all cases: cell-based
E. coli K12 (ATCC 29425) [1] = test: Impact of CAPB on cationic biocides, 60 second contact test against E. coli K12; conditions: 0.3% active, 60 seconds contact, 0.3 g/L bovine serum albumin; for LOG10 CFU/ml Reduction, w/ CAPB: with CAPB 3.5% w/w active; for LOG10 CFU/ml Reduction, w/o CAPB: without CAPB
Protocol: In this Example, the impact of cocamidopropyl betaine (CAPB) on the antimicrobial activity of cationic biocides against E. coli K12 (ATCC 29425) was analyzed.
Specifically, E. coli K12 was contacted for 60 seconds in a 0.3 g/L solution of bovine serum albumin mixed with a solution containing a cationic biocide, with or without CAPB (3.5% w/w active).

[2] = test system: P. aeruginosa (ATCC 15442); test: Impact of CAPB on cationic biocides, 60 second contact test against P. aeruginosa; conditions: 0.3% active, 60 seconds contact, 0.3 g/L bovine serum albumin; for LOG10 CFU/ml Reduction, w/ CAPB: with CAPB 3.5% w/w active; for LOG10 CFU/ml Reduction, w/o CAPB: without CAPB
Protocol: In this Example, the impact of cocamidopropyl betaine (CAPB) on the antimicrobial activity of cationic biocides against P. aeruginosa (ATCC 15442) was analyzed.
Specifically, P. aeruginosa was contacted for 60 seconds in a 0.3 g/L solution of bovine serum albumin and mixed with a solution containing a cationic biocide, with or without CAPB (3.5% w/w active).

S. aureus (ATCC 6538) = test: Impact of CAPB on cationic biocides, 60 second contact test against S. aureus; conditions: 0.3% active, 60 seconds contact, 0.3 g/L bovine serum albumin; for LOG10 CFU/ml Reduction, w/ CAPB: with CAPB 3.5% w/w active; for LOG10 CFU/ml Reduction, w/o CAPB: without CAPB
Protocol: In this Example, the impact of cocamidopropyl betaine (CAPB) on the antimicrobial activity of cationic biocides against S. aureus (ATCC 6538) was analyzed.
Specifically, S. aureus was contacted for 60 seconds in a 0.3 g/L solution of bovine serum albumin mixed with a solution containing a cationic biocide, with or without CAPB (3.5% w/w active).

E. faecalis (ATCC 29212) = test: Impact of CAPB on cationic biocides, 60 second contact test against E. faecalis; conditions: 0.3% active, 60 seconds contact, 0.3 g/L bovine serum albumin; for LOG10 CFU/ml Reduction, w/ CAPB: with CAPB 3.5% w/w active; for LOG10 CFU/ml Reduction, w/o CAPB: without CAPB
Protocol: In this Example, the impact of cocamidopropyl betaine (CAPB) on the antimicrobial activity of cationic biocides against E. faecalis (ATCC 29212) was analyzed.
Specifically, E. faecalis was contacted for 60 seconds in a 0.3 g/L solution of bovine serum albumin mixed with a solution containing a cationic biocide, with or without CAPB (3.5% w/w active).

E. coli K12 (ATCC 29425) [3] = test: Impact of other betaine-based surfactants on benzalkonium chloride efficacy against E. coli K12; conditions: 60 seconds contact, 0.3 g/L bovine serum albumin; for LOG10 CFU/ml Reduction, 0.3% benzalkonium chloride + 3.5% surfactant: 0.3% benzalkonium chloride combined with 3.5% of the named betaine-based surfactant
Protocol: In this Example, the impact of other betaine-based surfactants on the antimicrobial activity of benzalkonium chloride against E. coli K12 (ATCC 29425) was analyzed.
Specifically, E. coli K12 was contacted for 60 seconds in a 0.3 g/L solution of bovine serum albumin mixed with a solution containing benzalkonium chloride, with or without a betaine-based surfactant (3.5% w/w active).

| Compound | LOG10 CFU/ml Reduction, w/ CAPB (E. coli K12 (ATCC 29425) [1]) | LOG10 CFU/ml Reduction, w/o CAPB (E. coli K12 (ATCC 29425) [1]) | LOG10 CFU/ml Reduction, w/ CAPB [2] | LOG10 CFU/ml Reduction, w/o CAPB [2] | LOG10 CFU/ml Reduction, w/ CAPB (S. aureus (ATCC 6538)) | LOG10 CFU/ml Reduction, w/o CAPB (S. aureus (ATCC 6538)) | LOG10 CFU/ml Reduction, w/ CAPB (E. faecalis (ATCC 29212)) | LOG10 CFU/ml Reduction, w/o CAPB (E. faecalis (ATCC 29212)) | LOG10 CFU/ml Reduction, 0.3% benzalkonium chloride (E. coli K12 (ATCC 29425) [3]; 0.3% benzalkonium chloride alone) | LOG10 CFU/ml Reduction, 0.3% benzalkonium chloride + 3.5% surfactant (E. coli K12 (ATCC 29425) [3]) | LOG10 CFU/ml Reduction, w/ CAPB (S. aureus (ATCC 6538); listed as didecyldimonium chloride) |
| --- | --- | --- | --- | --- | --- | --- | --- | --- | --- | --- | --- |
| Benzalkonium chloride | <3.1 LOG10 CFU/ml | >5.5 LOG10 CFU/ml | <3.3 LOG10 CFU/ml | >5.7 LOG10 CFU/ml | <2.4 LOG10 CFU/ml | >4.9 LOG10 CFU/ml | <3.3 LOG10 CFU/ml | >5.7 LOG10 CFU/ml | >5.5 LOG10 CFU/ml | – | – |
| Coco-betaine | – | – | – | – | – | – | – | – | – | <3.1 LOG10 CFU/ml | – |
| CC(C)(C)CC(C)(C)c1ccc(OCCOCC[N+](C)(C)Cc2ccccc2)cc1 [Benzethonium chloride] | <3.1 LOG10 CFU/ml | >5.5 LOG10 CFU/ml | <3.3 LOG10 CFU/ml | >5.7 LOG10 CFU/ml | <2.4 LOG10 CFU/ml | >4.9 LOG10 CFU/ml | <3.3 LOG10 CFU/ml | 4.8 LOG10 CFU/ml | – | – | – |
| N=C(NCCCCCCNC(=N)NC(=N)Nc1ccc(Cl)cc1)NC(=N)Nc1ccc(Cl)cc1.O=C(O)[C@H](O)[C@@H](O)[C@H](O)[C@H](O)CO.O=C(O)[C@H](O)[C@@H](O)[C@H](O)[C@H](O)CO [Chlorhexidine gluconate] | <3.1 LOG10 CFU/ml | 5.5 LOG10 CFU/ml | <3.3 LOG10 CFU/ml | >5.7 LOG10 CFU/ml | <2.4 LOG10 CFU/ml | 3.2 LOG10 CFU/ml | <3.3 LOG10 CFU/ml | <3.3 LOG10 CFU/ml | – | – | – |
| Lauramidopropyl betaine | – | – | – | – | – | – | – | – | – | <3.0 LOG10 CFU/ml | – |
| CCCCCCCCCCCC[N+](C)(C)CC(=O)[O-] [Lauryl betaine] | – | – | – | – | – | – | – | – | – | <3.1 LOG10 CFU/ml | – |
| CCCCCCCCCC[N+](C)(C)CCCCCCCCCC.[Cl-] [Didecyldimonium chloride] | <3.1 LOG10 CFU/ml | 4.5 LOG10 CFU/ml | <3.3 LOG10 CFU/ml | >5.7 LOG10 CFU/ml | 4 LOG10 CFU/ml | >4.9 LOG10 CFU/ml | <3.3 LOG10 CFU/ml | >5.7 LOG10 CFU/ml | – | – | 4.0 LOG10 CFU/ml |
| Meadowfoamamidopropyl betaine | – | – | – | – | – | – | – | – | – | <3.0 LOG10 CFU/ml | – |
